Reference: US20230017045A1, “PYRIDINE AND PYRIMIDINE CARBOXYLATE HERBICIDES AND METHODS OF USE THEREOF” (Dow AgroSciences LLC, priority 2017, published 2023)
Read-outs that look alike come from different tables or passages of the source.

Test system: test plant species
Experiment: Post-emergent herbicidal activity test (greenhouse, foliar spray, visual growth reduction)
Type: in vivo
Settings: post-emergence, 336 h, 140 g ai/ha
Method in brief: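 Scoring used a 0 to 100 percent visual scale of growth reduction against solvent-treated controls, read 14 d after spraying. Applications went onto plants at first or second true leaf stage, 187 L/ha, with crop oil concentrate and X-77 surfactant in the carrier. Post-treatment watering was by subirrigation to avoid wash-off.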

[1] = ECHCG: barnyardgrass (Echinochloa crus-galli), 14 days after application, read-out: Visual Growth Reduction (%) 14 Days After Application, ECHCG
[2] = IPOHE: ivy-leaf morning glory (Ipomoea hederacea), 14 days after application, read-out: Visual Growth Reduction (%) 14 Days After Application, IPOHE
[3] = KCHSC: kochia (Bassia scoparia), 14 days after application, read-out: Visual Growth Reduction (%) 14 Days After Application, KCHSC
[4] = ORYSA: rice (Oryza sativa), 14 days after application, read-out: Visual Growth Reduction (%) 14 Days After Application, ORYSA
[5] = SETFA: giant foxtail (Setaria faberi), 14 days after application, read-out: Visual Growth Reduction (%) 14 Days After Application, SETFA
[6] = SORVU: grain sorghum (Sorghum vulgare), 14 days after application, read-out: Visual Growth Reduction (%) 14 Days After Application, SORVU
[7] = STEME: common chickweed (Stellaria media), 14 days after application, read-out: Visual Growth Reduction (%) 14 Days After Application, STEME
[8] = TRZAS: wheat, spring (Triticum aestivum), 14 days after application, read-out: Visual Growth Reduction (%) 14 Days After Application, TRZAS
[9] = blackgrass (Alopecurus myosuroides), 14 Days After Application, read-out: Visual Growth Reduction (%) ALOMY
[10] = crabgrass (Digitaria sanguinalis), 14 Days After Application, read-out: Visual Growth Reduction (%) DIGSA
[11] = lambsquarters (Chenopodium album), 14 Days After Application, read-out: Visual Growth Reduction (%) CHEAL
[12] = redroot pigweed (Amaranthus retroflexus), 14 Days After Application, read-out: Visual Growth Reduction (%) AMARE
[13] = wild oat (Avena fatua), 14 Days After Application, read-out: Visual Growth Reduction (%) AVEFA
[14] = yellow nutsedge (Cyperus esculentus), 14 Days After Application, read-out: Visual Growth Reduction (%) CYPES
[15] = ALOMY: blackgrass (Alopecurus myosuroides), 14 days after application, read-out: Visual Growth Reduction (%) 14 Days After Application, ALOMY
[16] = AMARE: redroot pigweed (Amaranthus retroflexus), 14 days after application, read-out: Visual Growth Reduction (%) 14 Days After Application, AMARE
[17] = AVEFA: wild oat (Avena fatua), 14 days after application, read-out: Visual Growth Reduction (%) 14 Days After Application, AVEFA
[18] = CHEAL: lambsquarters (Chenopodium album), 14 days after application, read-out: Visual Growth Reduction (%) 14 Days After Application, CHEAL
[19] = CIRAR: canada thistle (Cirsium arvense), 14 days after application, read-out: Visual Growth Reduction (%) 14 Days After Application, CIRAR
[20] = CYPES: yellow nutsedge (Cyperus esculentus), 14 days after application, read-out: Visual Growth Reduction (%) 14 Days After Application, CYPES
[21] = DIGSA: crabgrass (Digitaria sanguinalis), 14 days after application, read-out: Visual Growth Reduction (%) 14 Days After Application, DIGSA

Structure (SMILES) | pest or weed control at 140 g/ha [1] [%] | pest or weed control at 140 g/ha [2] [%] | pest or weed control at 140 g/ha [3] [%] | pest or weed control at 140 g/ha [4] [%] | pest or weed control at 140 g/ha [5] [%] | pest or weed control at 140 g/ha [6] [%] | pest or weed control at 140 g/ha [7] [%] | pest or weed control at 140 g/ha [8] [%] | pest or weed control at 140 g/ha [9] [%] | pest or weed control at 140 g/ha [10] [%] | pest or weed control at 140 g/ha [11] [%] | pest or weed control at 140 g/ha [12] [%] | pest or weed control at 140 g/ha [13] [%] | pest or weed control at 140 g/ha [15] [%] | pest or weed control at 140 g/ha [16] [%] | pest or weed control at 140 g/ha [17] [%] | pest or weed control at 140 g/ha [18] [%] | pest or weed control at 140 g/ha [19] [%] | pest or weed control at 140 g/ha [20] [%] | pest or weed control at 140 g/ha [21] [%] | further results
COc1cc(C(F)(F)F)ccc1-c1nc(C(=O)OCc2ccccc2)c(Cl)cc1F [F363, Benzyl 3-chloro-5-fluoro-6-(2-methoxy-4-(trifluoromethyl)phenyl)picolinate] | 95 to 100 | 95 to 100 | 75 to 84 | 30 to 44 | 85 to 94 | 95 to 100 | 30 to 44 | 75 to 84 | 0 to 29 | 0 to 29 | 95 to 100 | 95 to 100 | 85 to 94 | – | – | – | – | – | – | – | pest or weed control at 140 g/ha (canada thistle (Cirsium arvense), 14 Days After Application, read-out: Visual Growth Reduction (%) CIRAR): 85 to 94%; pest or weed control at 140 g/ha [14]: 0 to 29%
COC(=O)c1nc(-c2cc3c(cc2F)OC(F)(F)O3)ccc1Cl [F172, Methyl 3-chloro-6-(2,2,6-trifluorobenzo[d] [1,3]dioxol-5-yl)picolinate] | 75 to 84 | 95 to 100 | 30 to 44 | 0 to 29 | 45 to 59 | 95 to 100 | 0 to 29 | 45 to 59 | – | – | – | – | – | 30 to 44 | 95 to 100 | 30 to 44 | 85 to 94 | 60 to 74 | 75 to 84 | 85 to 94 | –
O=C(O)c1nc(-c2ncc(C(F)(F)F)cc2Cl)ccc1Cl [F164, 3′,5-Dichloro-5′-(trifluoromethyl)-[2,2′-bipyridine]-6-carboxylic acid] | 85 to 94 | 95 to 100 | 95 to 100 | 60 to 74 | 95 to 100 | 85 to 94 | 30 to 44 | 85 to 94 | – | – | – | – | – | 60 to 74 | 95 to 100 | 60 to 74 | 95 to 100 | 85 to 94 | 0 to 29 | 95 to 100 | –
COC(=O)c1nc(-c2ccc(Cl)c3ccccc23)c(F)cc1Cl [F346, Methyl 3-chloro-6-(4-chloronaphthalen-1-yl)-5-fluoropicolinate] | 0 to 29 | 30 to 44 | 0 to 29 | 0 to 29 | 0 to 29 | 0 to 29 | 0 to 29 | 0 to 29 | 0 to 29 | 0 to 29 | 0 to 29 | 0 to 29 | 0 to 29 | – | – | – | – | – | – | – | pest or weed control at 140 g/ha [14]: 0 to 29%
COC(=O)c1nc(-c2ccc(Cl)cc2Cl)ccc1C [F52, Methyl 6-(2,4-dichlorophenyl)-3-methylpicolinate] | 0 to 29 | – | 0 to 29 | 0 to 29 | 0 to 29 | 0 to 29 | 0 to 29 | 0 to 29 | – | – | – | – | – | 0 to 29 | 0 to 29 | 0 to 29 | 0 to 29 | 0 to 29 | 0 to 29 | 0 to 29 | –
